The text below walks through data of the supplement of paper PMC11061612.

Test [1] has as its system U-698-M. As to the kind of experiment: Bliss excess, mean over the matrix (fraction); higher = more synergy. The note with it: U-[…], B-Cell Non-Hodgkin's Lymphoma. In a few lines:
(§1)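 After 24 hours at 37°C and 5% CO2 in 1536-well plates, cells in DMEM/F12 or RPMI plus 10% FBS received two-drug dose matrices for 72 hours. Viability came from CellTiter-Glo 2.0 luminescence and was scaled as inhibition, anchored at 0 by vehicle wells and at 1 by blank wells. Combination Emax is taken as the second-highest inhibition in the matrix, and Bliss excess as the observed combination effect less EA + EB − EA·EB, with EA and EB the single-agent effects.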

The test system of test [2] is U-698-M. As to the kind of experiment: combination Emax (second highest fraction inhibited in the dose matrix, 72 h); higher = more inhibition. The settings on record: B-Cell Non-Hodgkin's Lymphoma. Summed up: as §1
Where [3] appears, read: first compound max 1 µM, partner max 1 µM, 7x7.
The mark [4] stands for this setting: first compound max 1 µM, partner max 10 µM, 7x7.
The mark [5] stands for this setting: first compound max 1 µM, partner max 3 µM, 7x7.
Where [6] appears, read: first compound max 1 µM, partner max 3 µM, 7x7, may be a limit of the assay.
Setting [7] is: first compound max 1 µM, partner max 1 µM, 7x7, may be a limit of the assay.
Where [8] appears, read: first compound max 1 µM, partner max 10 µM, 7x7, may be a limit of the assay.
[9] abbreviates: first compound max 1 µM, partner max 0.3 µM, 7x7.
Setting [10] is: first compound max 10 µM, partner max 10 µM, 7x7.
The mark [11] stands for this setting: first compound max 10 µM, partner max 0.3 µM, 7x7.
[12] abbreviates: first compound max 10 µM, partner max 1 µM.
[13] abbreviates: first compound max 10 µM, partner max 1 µM, 7x7.
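Wherever Bliss excess, mean over the matrix is given: after 72 h of two-drug dosing.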

As to `COc1nnc2ccc(N3CCC(c4ccc(OCCN5CCN(C)C(=O)[C@H]5C)cc4)CC3)nn12` [AZD5153] + CC1(C)CCC(CN2CCN(c3ccc(C(=O)NS(=O)(=O)c4ccc(NCC5CCOCC5)c([N+](=O)[O-])c4)c(Oc4cnc5[nH]ccc5c4)c3)CC2)=C(c2ccc(Cl)cc2)C1 [Venetoclax], the Bliss excess with U-698-M [1] (setting [3]) was -0.0463. Besides, in the test with U-698-M [2] (setting [3]), the “combination Emax” value was 0.671.
For `COc1nnc2ccc(N3CCC(c4ccc(OCCN5CCN(C)C(=O)[C@H]5C)cc4)CC3)nn12` [AZD5153] + CCN(CCO)CCCOc1ccc2c(Nc3cc(CC(=O)Nc4cccc(F)c4)[nH]n3)ncnc2c1 [AZD2811], in the test on U-698-M [1] (setting [3]), the Bliss excess was -0.0563. In addition, in the test with U-698-M [2] (setting [3]), the “combination Emax” value was found to be 0.673.
Turning to `COc1nnc2ccc(N3CCC(c4ccc(OCCN5CCN(C)C(=O)[C@H]5C)cc4)CC3)nn12` [AZD5153] + C[C@@H]1COCCN1C2=NC(=NC(=C2)C3(CC3)[S@](=N)(=O)C)C4=C5C=CNC5=NC=C4 [AZD6738], in the test with U-698-M [1] (setting [4]), the Bliss excess is -0.0616. For the same compound, the “combination Emax” value in the test on U-698-M [2] (setting [4]) was found to be 0.912.
`COc1nnc2ccc(N3CCC(c4ccc(OCCN5CCN(C)C(=O)[C@H]5C)cc4)CC3)nn12` [AZD5153] + Cc1c2c(nn1C)CSCc1cc(n(C)n1)CSc1cc(c3ccccc3c1)OCCCc1c(C(=O)O)n(C)c3c-2c(Cl)ccc13 [AZD5991]: the Bliss excess with U-698-M [1] (setting [3]) is -0.0271. Besides, in the test on U-698-M [2] (setting [3]), the “combination Emax” value was 0.998.
`COc1nnc2ccc(N3CCC(c4ccc(OCCN5CCN(C)C(=O)[C@H]5C)cc4)CC3)nn12` [AZD5153] + Cn1cnc2c(F)c(Nc3ccc(Br)cc3Cl)c(C(=O)NOCCO)cc21 [Selumetinib]: the Bliss excess in the test with U-698-M [1] (setting [4]) is -0.0573. Moreover, in the test with U-698-M [2] (setting [4]), the “combination Emax” value turned out to be 0.622.
Consider `Cc1c2c(nn1C)CSCc1cc(n(C)n1)CSc1cc(c3ccccc3c1)OCCCc1c(C(=O)O)n(C)c3c-2c(Cl)ccc13` [AZD5991] + C1CN(CCC1(C(=O)N[C@@H](CCO)C2=CC=C(C=C2)Cl)N)C3=NC=NC4=C3C=CN4 [Capivasertib], for which, in the test with U-698-M [1] (setting [5]), the Bliss excess is -0.0016. Besides, the “combination Emax” value in the test with U-698-M [2] (setting [6]) is 1.
As to `Cc1c2c(nn1C)CSCc1cc(n(C)n1)CSc1cc(c3ccccc3c1)OCCCc1c(C(=O)O)n(C)c3c-2c(Cl)ccc13` [AZD5991] + CC1(C)CCC(CN2CCN(c3ccc(C(=O)NS(=O)(=O)c4ccc(NCC5CCOCC5)c([N+](=O)[O-])c4)c(Oc4cnc5[nH]ccc5c4)c3)CC2)=C(c2ccc(Cl)cc2)C1 [Venetoclax], in the test with U-698-M [1] (setting [3]), the Bliss excess is -0.0069. Also, in the test with U-698-M [2] (setting [7]), the “combination Emax” value is 1.
Consider `Cc1c2c(nn1C)CSCc1cc(n(C)n1)CSc1cc(c3ccccc3c1)OCCCc1c(C(=O)O)n(C)c3c-2c(Cl)ccc13` [AZD5991] + CC(=O)O[C@H]1C(=O)[C@@]2(C)[C@H]([C@H](OC(=O)c3ccccc3)[C@]3(O)C[C@H](OC(=O)[C@H](O)[C@@H](NC(=O)c4ccccc4)c4ccccc4)C(C)=C1C3(C)C)[C@]1(OC(C)=O)CO[C@@H]1C[C@@H]2O [Paclitaxel], for which the Bliss excess in the test with U-698-M [1] (setting [5]) was -0.0123. Also, in the test with U-698-M [2] (setting [6]), the “combination Emax” value turned out to be 1.
Turning to `Cc1c2c(nn1C)CSCc1cc(n(C)n1)CSc1cc(c3ccccc3c1)OCCCc1c(C(=O)O)n(C)c3c-2c(Cl)ccc13` [AZD5991] + CCN(CCO)CCCOc1ccc2c(Nc3cc(CC(=O)Nc4cccc(F)c4)[nH]n3)ncnc2c1 [AZD2811], the Bliss excess in the test on U-698-M [1] (setting [3]) is 0.0024. Besides, the “combination Emax” value in the test with U-698-M [2] (setting [7]) is 1.
For `Cc1c2c(nn1C)CSCc1cc(n(C)n1)CSc1cc(c3ccccc3c1)OCCCc1c(C(=O)O)n(C)c3c-2c(Cl)ccc13` [AZD5991] + CN(C)CCCOc1ccc(-c2ccc3ncc4c(c3c2)n(C2CCOCC2)c(=O)n4C)cn1 [AZD0156] the same measures were 0.0036 and 1.
As for `Cc1c2c(nn1C)CSCc1cc(n(C)n1)CSc1cc(c3ccccc3c1)OCCCc1c(C(=O)O)n(C)c3c-2c(Cl)ccc13` [AZD5991] + CS(=O)(=O)CCNCc1ccc(-c2ccc3ncnc(Nc4ccc(OCc5cccc(F)c5)c(Cl)c4)c3c2)o1 [Lapatinib], the Bliss excess in the test with U-698-M [1] (setting [4]) was found to be 0.0295. Also, the “combination Emax” value with U-698-M [2] (setting [4]) is 0.992.
Take `Cc1c2c(nn1C)CSCc1cc(n(C)n1)CSc1cc(c3ccccc3c1)OCCCc1c(C(=O)O)n(C)c3c-2c(Cl)ccc13` [AZD5991] + C[C@@H]1COCCN1C2=NC(=NC(=C2)C3(CC3)[S@](=N)(=O)C)C4=C5C=CNC5=NC=C4 [AZD6738]: the Bliss excess with U-698-M [1] (setting [4]) is -0.0194. Also, the “combination Emax” value with U-698-M [2] (setting [8]) turned out to be 1.
`Cc1c2c(nn1C)CSCc1cc(n(C)n1)CSc1cc(c3ccccc3c1)OCCCc1c(C(=O)O)n(C)c3c-2c(Cl)ccc13` [AZD5991] + C[C@@H](Nc1cc(F)cc(F)c1)c1cc(C(=O)N(C)C)cc2c(=O)cc(N3CCOCC3)oc12 [AZD8186]: the Bliss excess in the test with U-698-M [1] (setting [5]) was -0.0258. For the same compound, the “combination Emax” value with U-698-M [2] (setting [6]) was found to be 1.
As for `Cc1c2c(nn1C)CSCc1cc(n(C)n1)CSc1cc(c3ccccc3c1)OCCCc1c(C(=O)O)n(C)c3c-2c(Cl)ccc13` [AZD5991] + Cc1cc2ncnn2cc1Nc1ncc2c(n1)n(C1CCOCC1)c(=O)n2C [AZD7648], in the test with U-698-M [1] (setting [4]), the Bliss excess amounted to 0.0183. For the same compound, the “combination Emax” value with U-698-M [2] (setting [8]) is 1.
On to `Cc1c2c(nn1C)CSCc1cc(n(C)n1)CSc1cc(c3ccccc3c1)OCCCc1c(C(=O)O)n(C)c3c-2c(Cl)ccc13` [AZD5991] + Cn1cnc2c(F)c(Nc3ccc(Br)cc3Cl)c(C(=O)NOCCO)cc21 [Selumetinib], for which the Bliss excess in the test with U-698-M [1] (setting [5]) is -0.0034. Also, the “combination Emax” value in the test with U-698-M [2] (setting [6]) stood at 1.
For the compound `Cc1c2c(nn1C)CSCc1cc(n(C)n1)CSc1cc(c3ccccc3c1)OCCCc1c(C(=O)O)n(C)c3c-2c(Cl)ccc13` [AZD5991] + Nc1ccn([C@@H]2O[C@H](CO)[C@@H](O)C2(F)F)c(=O)n1 [Gemcitabine], the Bliss excess with U-698-M [1] (setting [9]) was determined as 0.0211. For the same compound, in the test with U-698-M [2] (setting [9]), the “combination Emax” value is 0.966.
Consider `C[C@@H]1COCCN1c1cc(C2([S@](C)(=N)=O)CC2)nc(-c2ccnc3[nH]ccc23)n1` [AZD6738] + C1CC(C1)(C(=O)[O-])C(=O)[O-].N.N.[Pt+2] [Carboplatin], for which the Bliss excess in the test on U-698-M [1] (setting [10]) is -0.0625. For the same compound, the “combination Emax” value in the test with U-698-M [2] (setting [10]) came out at 0.84.
Turning to `C[C@@H]1COCCN1c1cc(C2([S@](C)(=N)=O)CC2)nc(-c2ccnc3[nH]ccc23)n1` [AZD6738] + Nc1ccn([C@@H]2O[C@H](CO)[C@@H](O)C2(F)F)c(=O)n1 [Gemcitabine], the Bliss excess in the test with U-698-M [1] (setting [11]) was 0.0526. In the test with U-698-M [2] (setting [11]), the “combination Emax” value turned out to be 0.871.
As to `C[C@@H]1COCCN1c1cc(C2([S@](C)(=N)=O)CC2)nc(-c2ccnc3[nH]ccc23)n1` [AZD6738] + O=C(c1cc(Cc2n[nH]c(=O)c3ccccc23)ccc1F)N1CCN(C(=O)C2CC2)CC1 [Olaparib], in the test on U-698-M [1] (setting [10]), the Bliss excess was -0.0503. Besides, the “combination Emax” value in the test on U-698-M [2] (setting [10]) was 0.934.
Consider `Cc1cc2ncnn2cc1Nc1ncc2c(n1)n(C1CCOCC1)c(=O)n2C` [AZD7648] + C=CCn1c(=O)c2cnc(Nc3ccc(N4CCN(C)CC4)cc3)nc2n1-c1cccc(C(C)(C)O)n1 [AZD1775], for which the Bliss excess with U-698-M [1] (setting [12]) is -0.0156. For the same compound, the “combination Emax” value in the test on U-698-M [2] (setting [12]) came out at 0.971.
For `Cc1cc2ncnn2cc1Nc1ncc2c(n1)n(C1CCOCC1)c(=O)n2C` [AZD7648] + CCN(CCO)CCCOc1ccc2c(Nc3cc(CC(=O)Nc4cccc(F)c4)[nH]n3)ncnc2c1 [AZD2811], the Bliss excess in the test with U-698-M [1] (setting [13]) was 0.0631. For the same compound, in the test on U-698-M [2] (setting [13]), the “combination Emax” value was 0.444.
On the same counts, the results for `Cc1cc2ncnn2cc1Nc1ncc2c(n1)n(C1CCOCC1)c(=O)n2C` [AZD7648] + CN(C)CCCOc1ccc(-c2ccc3ncc4c(c3c2)n(C2CCOCC2)c(=O)n4C)cn1 [AZD0156] are 0.0015 and 0.488.
In the case of `Cc1cc2ncnn2cc1Nc1ncc2c(n1)n(C1CCOCC1)c(=O)n2C` [AZD7648] + COc1cc([C@@H]2c3cc4c(cc3[C@@H](O[C@@H]3O[C@@H]5CO[C@@H](C)O[C@H]5[C@H](O)[C@H]3O)[C@H]3COC(=O)[C@H]23)OCO4)cc(OC)c1O [Etoposide], the Bliss excess in the test with U-698-M [1] (setting [10]) is 0.0866. The “combination Emax” value in the test with U-698-M [2] (setting [10]) came to 0.823.
As to `Cc1cc2ncnn2cc1Nc1ncc2c(n1)n(C1CCOCC1)c(=O)n2C` [AZD7648] + C[C@@H]1COCCN1C2=NC(=NC(=C2)C3(CC3)[S@](=N)(=O)C)C4=C5C=CNC5=NC=C4 [AZD6738], in the test with U-698-M [1] (setting [10]), the Bliss excess was -0.0006. Besides, the “combination Emax” value in the test with U-698-M [2] (setting [10]) was found to be 0.939.
